Experimental data from patent US20110294722A1, “ANTIMICROBIAL PEPTIDES” (priority 2008, published 2011).
Where two headings read alike, the source gives them in different places. No end group written: not given here.

Assays:
Cladosporium herbarum = assay: In-vitro inhibition assay (MIC), Example 2; format: cell-based; conditions: visual screening
Protocol: (§1) In-vitro inhibition assays were performed in sterile flat-bottom 96-well plates (Greiner bio-one, Frickenhausen). Antimicrobial peptides were dissolved in 0.01% acetic acid containing 0.2% BSA (500 μg/ml), filter sterilized and stored at −20° C. For inhibition assays dilutions of peptides ranging from 5 to 200 μg/ml were prepared and 10 μl (antibacterial assay) or 20 μl (antifungal assay) of each concentration was loaded per well.
(§2) Spores of fungi were collected by water washes of sporulating cultures grown on 2% malt extract agar and spore concentration was determined by microscopy. The concentration of the spores was adjusted to 1.5-2×10^3 spores/ml in 2% malt extract medium and 80 μl of fungal spores were added per well. The final peptide concentrations used in the fungal inhibition assays were […]. After overnight incubation at room temperature the plate were put on a rotary shaker (300 rpm) for further two days to ensure consistantly growth. Antifungal effects of the peptides were determined by a microplate reader (Alternaria, Fusarium) at OD590 nm or by visual screening of the plates (Botrytis, Cladosporium).
(§3) The lowest peptide concentration leading to complete inhibition of bacterial growth or spore germination/mycelial growth (minimal inhibition concentration, MIC) was determined for each organism-peptide combination. For each peptide concentration two identical inhibition assays were performed.

Alternaria alternata = assay: In-vitro inhibition assay (MIC), Example 2; format: cell-based; conditions: OD590 nm
Protocol: as §1, §2, §3

Botrytis cinerea = assay: In-vitro inhibition assay (MIC), Example 2; format: cell-based; conditions: visual screening
Protocol: as §1, §2, §3

[1] = system: Clavibacter michiganensis; assay: In-vitro inhibition assay (MIC and LC), Example 3; format: cell-based; conditions: for MIC (>90% inhibition): 1-2 days at 25° C.; for LC (lethal concentration, 100% inhibition): at least 4 days of incubation
Protocol: as §1, with “20” for “20 μl”
(§4) Bacteria colonies from overnight agar plate cultures were resuspended into 5 ml LB-medium or HPG-medium (OD600 nm=0.08-0.1) and diluted into LB-medium/HPG-medium (1:100). 90 μl of this suspension containing about 10^5-10^6 CFU/ml of tested bacteria were added to each well resulting in final peptide concentrations of 0, 0.5, 1, 2, 5, 10, and 20 μg/ml. […] The lowest concentration, in which there is no observable growth (>90% inhibition) is referred to as minimal inhibitory concentration (MIC). […] For each peptide concentration two identical inhibition assays were performed.

Xanthomonas vesicatoria [2] = assay: In-vitro inhibition assay (MIC and LC), Example 3; format: cell-based; conditions: for MIC (>90% inhibition): 1-2 days at 25° C.; for LC (lethal concentration, 100% inhibition): at least 4 days of incubation
Protocol: as §1, with “20” for “20 μl”
as §4

[3] = system: Pseudomonas syringae pv. syringae; format: cell-based; conditions: for LC (lethal concentration, 100% inhibition): at least 4 days of incubation
Protocol: as §1, with “20” for “20 μl”
as §4

Pseudomonas corrugata [4] = format: cell-based; conditions: for LC (lethal concentration, 100% inhibition): at least 4 days of incubation
Protocol: as §1, with “20” for “20 μl”
as §4

[5] = system: Pectobacterium carotovorum; format: cell-based; conditions: for LC (lethal concentration, 100% inhibition): at least 4 days of incubation
Protocol: as §1, with “20” for “20 μl”
as §4

[6] = system: Pseudomonas syringae pv. tomato; format: cell-based; conditions: for LC (lethal concentration, 100% inhibition): at least 4 days of incubation
Protocol: as §1, with “20” for “20 μl”
as §4

[7] = system: Pseudomonas syringae pv. syringae
Pseudomonas corrugata [8] = system: Pseudomonas corrugata
Xanthomonas vesicatoria [9] = system: Xanthomonas vesicatoria
[10] = system: Clavibacter michiganensis sub. michiganensis; conditions: overnight 25° C.
[11] = system: Pectobacterium carotovorum sub. carotovorum
[12] = system: Pseudomonas syringae pv. tomato
[13] = Pseudomonas syringae pv. syringae, 1-2 days at 25° C.
[14] = Pseudomonas syringae pv. syringae
[15] = Pseudomonas corrugata, 1-2 days at 25° C.
[16] = Pectobacterium carotovorum, 1-2 days at 25° C.
[17] = Pseudomonas syringae pv. tomato, 1-2 days at 25° C.
[18] = Pseudomonas syringae pv. tomato

| Substance | Minimal inhibition concentration (MIC) for complete inhibition of spore germination/mycelial growth (Cladosporium herbarum) | Minimal inhibition concentration (MIC) for complete inhibition of spore germination/mycelial growth (Alternaria alternata) | Minimal inhibition concentration (MIC) for complete inhibition of spore germination/mycelial growth (Botrytis cinerea) | MIC (>90% inhibition) [1] | LC (lethal concentration, 100% inhibition) [1] | MIC (>90% inhibition) (Xanthomonas vesicatoria [2]) | LC (lethal concentration, 100% inhibition) (Xanthomonas vesicatoria [2]) | MIC (>90% inhibition) [3, 13] | LC (lethal concentration, 100% inhibition) [3, 14] | MIC (>90% inhibition) (Pseudomonas corrugata [4]; [15]) | LC (lethal concentration, 100% inhibition) (Pseudomonas corrugata [4]; Pseudomonas corrugata) | MIC (>90% inhibition) [5, 16] | LC (lethal concentration, 100% inhibition) ([5]; Pectobacterium carotovorum) | MIC (>90% inhibition) [6, 17] | LC (lethal concentration, 100% inhibition) [6, 18] | other results |
| --- | --- | --- | --- | --- | --- | --- | --- | --- | --- | --- | --- | --- | --- | --- | --- | --- |
| KKKAARALKRAL-NH2 [Sp4, KKKAARALKRAL] | 40 µg/mL | >100 µg/mL | >100 µg/mL |  |  |  |  |  |  |  |  |  |  |  |  |  |
| KKKKIIKRLI-NH2 [SP1-17] |  |  |  | >10/>10 μg/ml | >10/>10 μg/ml | >10/>10 μg/ml | >10/>10 μg/ml | < 0.1 µg/mL | > 10 µg/mL | 5.0 µg/mL | > 10 µg/mL | >10/>10 μg/ml | >10/>10 μg/ml | 1.0/1.0 μg/ml | 1.0/1.0 μg/ml |  |
| RKKRVKLLKRLV-NH2 [SP1-2] |  |  |  | 10/>10 μg/ml | 10/>10 μg/ml | 5.0 µg/mL | > 10 µg/mL | 2.5 µg/mL | 5.0 µg/mL | 0.5 µg/mL | 2.5 µg/mL | >10/>10 μg/ml | >10/>10 μg/ml | 5.0/5.0 μg/ml | 5.0/5.0 μg/ml |  |
| RKKKFKFFKRLF-NH2 [SP1-12] |  |  |  | 0.5/0.5 μg/ml | 0.5/0.5 μg/ml | 0.5 µg/mL | 2.5 µg/mL | 0.1 µg/mL | 0.5 µg/mL | 0.25 µg/mL | 0.5 µg/mL | >10/>10 μg/ml | >10/>10 μg/ml | >10/>10 μg/ml | >10/>10 μg/ml |  |
| RKKRKKLIKRLI-NH2 [Sp1-19] |  |  |  | 5.0/5.0 μg/ml | 5.0/5.0 μg/ml | 5.0 µg/mL | > 10 µg/mL | < 0.1 µg/mL | 5.0 µg/mL | 0.5 µg/mL | 1.0 µg/mL | >10/>10 μg/ml | >10/>10 μg/ml | >10/>10 μg/ml | >10/>10 μg/ml |  |
| RKKRLKLLKRLV-NH2 [SP1] | 10 µg/mL | >100 µg/mL | >100 µg/mL | 5.0/5.0 μg/ml | 5.0/5.0 μg/ml | 0.5 µg/mL | 1.0 µg/mL |  | 0.5 µg/mL |  | 1.0 µg/mL |  | >10/>10 μg/ml |  | 10/10 μg/ml | Minimal inhibition concentration (MIC) for complete inhibition of bacterial growth [7]: 2 µg/mL; Minimal inhibition concentration (MIC) for complete inhibition of bacterial growth (Pseudomonas corrugata [8]): 2 µg/mL; Minimal inhibition concentration (MIC) for complete inhibition of bacterial growth (Xanthomonas vesicatoria [9]): 2 µg/mL; Minimal inhibition concentration (MIC) for complete inhibition of bacterial growth [10]: 1 µg/mL; Minimal inhibition concentration (MIC) for complete inhibition of bacterial growth [11]: >40 µg/mL; Minimal inhibition concentration (MIC) for complete inhibition of bacterial growth [12]: 1 µg/mL; MIC (>90% inhibition) [3]: 0.1 µg/mL; MIC (>90% inhibition) (Pseudomonas corrugata [4]): 0.5 µg/mL; MIC (>90% inhibition) [5]: >10/>10 μg/ml; MIC (>90% inhibition) [6]: 10/10 μg/ml |
| RKRFARFAKRAV-NH2 [Sp3] | 40 µg/mL | >100 µg/mL | >100 µg/mL |  |  |  |  |  |  |  |  |  |  |  |  |  |
| RKKKAKIIKKII-NH2 [SP1-10] |  |  |  | >10/>10 μg/ml | >10/>10 μg/ml | >10/>10 μg/ml | >10/>10 μg/ml | 1.0 µg/mL | 5.0 µg/mL | 10/10 μg/ml | 10/10 μg/ml | >10/>10 μg/ml | >10/>10 μg/ml | >10/>10 μg/ml | >10/>10 μg/ml |  |
| RKKKVKLLKRLV-NH2 [SP1-3] |  |  |  | >10/>10 μg/ml | >10/>10 μg/ml | >10/>10 μg/ml | >10/>10 μg/ml | 0.25 µg/mL | 1.0 µg/mL | 2.5/2.5 μg/ml | 2.5/2.5 μg/ml | >10/>10 μg/ml | >10/>10 μg/ml | 5.0 µg/mL | 10 µg/mL |  |
| KRKKLLKRLI-NH2 [SP1-16] |  |  |  | >10/>10 μg/ml | >10/>10 μg/ml | 10/>10 μg/ml | 10/>10 μg/ml | 0.1 µg/mL | 2.5 µg/mL | 0.5 µg/mL | 1.0 µg/mL | >10/>10 μg/ml | >10/>10 μg/ml | 1.0/1.0 μg/ml | 1.0/1.0 μg/ml |  |
| RKKRKKLLKRLL-NH2 [SP1-18] |  |  |  | 5.0/5.0 μg/ml | 5.0/5.0 μg/ml | 5.0 µg/mL | 10 µg/mL | 0.1 µg/mL | 5.0 µg/mL | 0.25 µg/mL | 0.5 µg/mL | >10/>10 μg/ml | >10/>10 μg/ml | 1.0 µg/mL | 0.5 µg/mL |  |
| RKRAARLLKRLV-NH2 [Sp2] | 20 µg/mL | >100 µg/mL | >100 µg/mL |  |  |  |  |  |  |  |  |  |  |  |  |  |
| RKKKIKIIKKII-NH2 [SP1-9] |  |  |  | 2.5 µg/mL | 10 µg/mL | 2.5/2.5 μg/ml | 2.5/2.5 μg/ml | 0.5 µg/mL | 1.0 µg/mL | 5.0/5.0 μg/ml | 5.0/5.0 μg/ml | >10/>10 μg/ml | >10/>10 μg/ml | 5.0 µg/mL | 10 µg/mL |  |
